What was measured:
[1] = system: γ-aminobutyric α-ketoglutaric transaminase (GABA T); test: Inhibition of GABA T in vitro (coupled spectrophotometric test with GABASE); assay type: biochemical, Pseudomonas fluorescens; conditions: comparison of Ki with sodium di-n-propylacetate (0.8 m mol/ml)
Protocol: This test was undertaken "in vitro" in the absorption cell of a double-beam U.V. spectrophotometer.
The activity of GABA T was measured by following the reduction rate (v) of NADP^+ which corresponds to the evolution of the optical density at 340 mμ on the spectrophotometer.
Determination of the activity rate of GABA T by the principle hereabove described can be effected with either limiting concentrations or a saturating concentration of one of the substrates, in the present case GABA, in each instance, in the presence of a saturating concentration of the second substrate namely α-ketoglutarate.
This effectiveness is represented by the constant Ki or constant of inhibition which determines the affinity of the enzyme (GABA T) for the inhibitor.
This constant is expressed in units of concentration, in the present case, in m mol per ml and can be determined by plotting all the curves corresponding to 1/v = f (I) for a saturating concentration of GABA and for different limiting concentrations of GABA.
The following experimental procedure was used:
In the absorption cell (optical passage: 1 cm, volume: about 1 ml) the following solutions were introduced.
0.5 ml of a 1.5 molar solution of sodium sulphate
0.05 ml of a molar buffer solution of pH = 7.9
0.05 ml of a 0.1 molar solution of mercapto-ethanol
0.05 ml of a 20 mg/ml solution of NADP^+
0.125 ml of a solution of GABA
0.03 ml of a 40 mg/ml solution of GABASE (namely a bacterial enzyme isolated from Pseudomonas fluorescens containing a mixture of γ-aminobutyric α-ketoglutaric transaminase and succinosemialdehyde dehydrogenase).
0.125 ml of a solution of the compound to be studied.
If the compound of the invention was in the form of a water-insoluble acid, its sodium salt was used after adjustment to a pH of about 7.9 by adding a titrated solution of sodium hydroxide.
Different measurements of optical density were effected by varying the concentration of GABA and the concentration of the compound under study. Control assays were also effected by replacing the solution of the compound to be studied by 0.125 ml of water.
The content of the absorption cell was allowed to incubate for 10 minutes at 30° C. and then the enzymatic reaction was started by adding 0.1 ml of a 0.02 molar solution of α-ketoglutarate in the absorption cell. The final volume was 1.03 ml. The reaction was then followed by spectrophotometric recording of the reduction rate of the NADP^+ at 340 mμ and at 30° C. The optical density was automatically registered every 30 seconds.

[2] = system: anoxic seizure induced by gallamine triiodoethylate; test: Antianoxic activity: anoxic seizure induced by gallamine triiodoethylate; assay type: in vivo, mouse; conditions: mice; for antianoxic activity compared with sodium di-n-propylacetate: at the doses studied in Table II
Protocol: The injection of a sufficient dose of a synthetic curariform substance such as gallamine triiodoethylate provokes in the mouse paralysis of the diaphragm. The animal then dies through asphyxia.
An intraperitoneal dose of the compound to be studied was administered to batches of 20 mice five minutes before the administration of 16 mg/kg of gallamine triiodoethylate by intraperitoneal route. The dose of the compound to be tested was calculated so that each batch received a higher dose than the preceding batch.
The period of time of survival was registered by controlling cardiac arrest by means of an electrocardiogram.
Under these conditions, an antianoxic effect produces an increase in the period of survival of the animal.

[3] = system: pentylenetetrazol-induced seizure; test: Anticonvulsant activity: pentylenetetrazol-induced seizure; assay type: in vivo; conditions: for % of protection: i.p. 15 min before 125 mg/kg pentylenetetrazol i.p., deaths noted at 3 hours, dose mg/kg: A 160, B 175, C 185, F 185, G 175; for anticonvulsant activity compared with sodium di-n-propylacetate / duration of anticonvulsant action compared with sodium di-n-propylacetate: pentylenetetrazol test
Protocol: This test is carried out on mice with a view to determining whether the compounds of this invention, when given preventively by intraperitoneal route, are capable at certain doses of protecting some of the animals against the epileptic seizure produced by an adequate and predetermined dose of pentylenetetrazol which would be 100% fatal in the absence of the compound.
The test was carried out on batches of 10 mice. Each batch of animals received an intraperitoneal dose of the compound to be studied so that each batch received a higher dose than the preceding batch. Fifteen minutes after administration of the compound to be tested, the animals were each given 125 mg/kg of pentylenetetrazol by intraperitoneal route. The percentage of deaths was noted 3 hours after injection of this latter compound and the result was expressed as a percentage of protection.

in vivo = conditions: ip, mouse, intraperitoneal route
[4] = Solubility of the isolated acid; assay type: physicochemical; conditions: free acid
Excerpt: In this manner, 9.6 g of 3-n-propyl-hexanoic acid were obtained in the form of a colourless, slightly viscous liquid, insoluble in water and soluble in the organic solvents.

[5] = system: pentylenetetrazol-induced seizure; test: Anticonvulsant activity: pentylenetetrazol-induced seizure; assay type: in vivo; conditions: mice; for % of the animals still protected one hour after administration: 195 mg/kg of Compound B, 210 mg/kg of Compound C
[6] = i.p. 5 min before 16 mg/kg gallamine triiodoethylate i.p., dose mg/kg: A 360, D 250, E 150, F 210, G 355
[7] = mice, 195 mg/kg of Compound B, 210 mg/kg of Compound C

| Compound | activity as GABA T inhibitor compared with sodium di-n-propylacetate [1] | antianoxic activity compared with sodium di-n-propylacetate [2] | % of increase in the period of survival in comparison with the controls [2, 6] [%] | % of protection ([3]; mice) [%] | LD50 (in vivo) [mg/kg] | other results |
| --- | --- | --- | --- | --- | --- | --- |
| CCCC(CCC)CC(=O)O [Compound A, 3-n-Propyl-hexanoic acid] | more active | slightly more active | 60 | 100 | 500 | anticonvulsant activity compared with sodium di-n-propylacetate ([3]; mice): more active; % protection against the pentylenetetrazol-induced seizure ([3]; mice, 105 mg/kg by intraperitoneal route): 85%; MTD (in vivo; read-out: LDO, maximum tolerated dose (M.T.D.), highest dose which provokes no deaths): > 400 mg/kg; solubility in the organic solvents ([4]; organic solvents): soluble; solubility in water ([4]; water): insoluble |
| CCCC(CCC)CCC(=O)O [Compound B, 4-n-Propyl-heptanoic acid] | slightly less active |  |  | 85 | 350 | duration of anticonvulsant action compared with sodium di-n-propylacetate ([3]; mice): longer period of time; % protection against the pentylenetetrazol-induced seizure [3, 7]: about 100%; % of the animals still protected one hour after administration [5]: 40% |
| CCCC(CCC)CCCC(=O)O [Compound C, 5-n-Propyl-octanoic acid] |  |  |  | 85 | 350 | % of the mice protected against the pentylenetetrazol-induced seizure ([3]; 125 mg/kg by intraperitoneal route): 65%; duration of anticonvulsant action compared with sodium di-n-propylacetate ([3]; mice): longer period of time; % protection against the pentylenetetrazol-induced seizure [3, 7]: about 100%; % of the animals still protected one hour after administration [5]: 70% |
| CC(C)CC(=O)O [Compound D, 3-methyl-butanoic acid] |  | appreciably more active | 73 |  |  |  |
| CCC(CC)CC(=O)O [Compound E, 3-ethyl-pentanoic acid] |  | appreciably more active | 59 |  |  |  |
| CCCCC(CCCC)CC(=O)O [Compound F, 3-n-Butyl-heptanoic acid] | slightly less active | slightly more active | 29 | 95 | 300 | anticonvulsant activity compared with sodium di-n-propylacetate ([3]; mice): more active |
| CCCC(=CC(=O)O)CCC [Compound G, 3-n-Propyl-2-hexenoic acid] | more active | slightly more active | 50 | 75 |  |  |
| CCCC(CCC)C(=O)[O-].[Na+] [sodium di-n-propylacetate, reference compound] |  |  |  |  |  | % of increase in the period of survival in comparison with the controls ([2]; 330 mg/kg, same conditions (i.p. 5 min before 16 mg/kg gallamine triiodoethylate i.p.)): 40%; % of animals protected against the pentylenetetrazol-induced seizure ([3]; mice, 250 mg/kg, same conditions): 100%; % protection of the animals one hour after administration ([5]; 250 mg/kg): 20% |

— patent US4025649A, “Acetic acid derivatives having pharmacological activity and compositions containing the same” (priority 1975, dated 1977)
